Legend:
[1] = target: T1, mouse DGAT1 (Mus musculus, UniProt Q9Z2A7); test: DGAT1 inhibitory effect test (microsome fraction, [14C]-oleoyl-CoA, triglyceride radioactivity by TLC); assay type: biochemical; details: 0.5 h; concentration of the test compound 0.1 μg/ml; mouse DGAT1 microsomes, 23° C., 30 minutes; read-out: Inhibitory ratio
T1 construct: made in house; host or cells: insect cells (High Five, Sf9, Sf21, etc.), baculovirus expression system (Invitrogen)
T1 sequence (Q9Z2A7 1-498): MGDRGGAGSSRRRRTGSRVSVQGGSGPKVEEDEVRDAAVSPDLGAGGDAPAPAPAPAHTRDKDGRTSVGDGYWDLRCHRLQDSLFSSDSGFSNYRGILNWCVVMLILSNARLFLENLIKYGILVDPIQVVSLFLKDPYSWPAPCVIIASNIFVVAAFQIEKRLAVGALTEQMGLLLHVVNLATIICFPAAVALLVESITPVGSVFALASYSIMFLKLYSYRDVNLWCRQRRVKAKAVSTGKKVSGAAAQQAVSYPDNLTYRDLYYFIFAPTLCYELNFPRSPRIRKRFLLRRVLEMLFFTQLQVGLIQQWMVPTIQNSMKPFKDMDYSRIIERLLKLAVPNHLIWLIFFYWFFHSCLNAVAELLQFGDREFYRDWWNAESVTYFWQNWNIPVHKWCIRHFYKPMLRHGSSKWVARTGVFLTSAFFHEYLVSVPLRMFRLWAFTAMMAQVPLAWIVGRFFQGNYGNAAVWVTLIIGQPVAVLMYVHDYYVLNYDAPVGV
Protocol: The cDNA which encodes mouse DGAT1 was cloned from a mouse cDNA library by polymerase chain reaction (hereinafter referred to as “PCR”) and introduced into an insect cell virus vector (baculovirus expression system, Invitrogen). After insect cells (High Five, Sf9, Sf21, etc., Invitrogen) were infected with the virus, the cells were collected in buffer A [0.1M sucrose, 50 mM KCl, 40 mM potassium phosphate (pH 7.4), 30 mM EDTA, 1% Protease inhibitor cocktail (SIGMA, P-8340)] and crushed with a Polytron homogenizer. The supernatant obtained by subjecting the homogenate to low speed centrifugal processing (10,000 ×g, 30 minutes) was further subjected to higher-speed centrifugal processing (100,000 ×g, 60 minutes) and the precipitate was resuspended in buffer A as the microsome fraction and used as DGAT1 enzyme. The DGAT1 enzyme was divided into small volumes and stored at −80° C.
(2) DGAT1 Inhibitory Effect Test
The reaction liquid of the following composition [175 mM Tris-HCl (pH 8.0), 8 mM MgCl2, 1 mg/ml BSA, 0.5 mM 1,2-dioleoyl-sn-glycerol (EtOH solution of 10-fold concentration, 10% added), 30 μM[14C]-oleoyl-CoA (about 50 mCi/mmol), 0.5% triton X-100, DGAT1 enzyme (10 μg) obtained in Test Example 1(1), test compound or vehicle (DMSO/MeOH, 7:3 solution, 5% added), total volume 50 μl] was incubated at room temperature (23° C.) for 30 minutes. A reaction terminating solution (70 μl) consisting of isopropanol/1-heptane/water (80:20:2, v/v/v) was added to the reaction solution and stirred, and subsequently stirred with water (30 μl) and 1-heptane (100 μl). The 1-heptane layer (50 μl) was spotted onto a TLC plate and developed with a developing solvent consisting of 1-hexane/diethyl ether/acetic acid (85:15:1, v/v/v). Radioactivity of triglyceride fraction was quantified by BAS2000 bio image analyzer (Fuji Film) and the inhibitory effect of the test compounds was calculated by the following formula through comparison with control. Here, radioactivity at no reaction (0 minutes incubation) was assumed as background. Inhibitory ratio=100−[(Radioactivity when test compound was added)−(Background)]/[(Radioactivity by control)−(Background)]×100

Row | Compound | inhibition at 0.1 µg/mL [1] [%] | melting point [°C]
1 | COc1ccc(C)cc1NC(=O)Nc1ccc(N2CCN(C(=O)Nc3ccc(OCCO)cc3F)CC2)cc1 [Example 210, 4-{4-[3-(2-methoxy-5-methyl-phenyl)-ureido]-phenyl}-piperazine-1-carboxylic acid [2-fluoro-4-(2-hydroxy-ethoxy)-phenyl]-amide] | ≥ 50 | 214 to 215
2 | Cc1ccc(F)c(NC(=O)Nc2ccc(N3CCN(C(=O)OC(C)(C)C)CC3)cc2)c1 [Example 37, 4-{4-[3-(2-fluoro-5-methyl-phenyl)-ureido]-phenyl}-piperazine-1-carboxylic acid tert-butyl ester] | ≥ 50 | 211 to 214
3 | CCC(C)c1ccc(NC(=O)Nc2ccc(N3CCN(C(=O)Nc4c(C)cccc4Cl)CC3)cc2)cc1 (stereo not shown) [Example 161, 4-{4-[3-(4-sec-butyl-phenyl)-ureido]-phenyl}-piperazine-1-carboxylic acid (2-chloro-6-methyl-phenyl)-amide] | ≥ 50 | 259 to 261
4 | COc1ccc(C)cc1NC(=O)Nc1ccc(N2CCN(C(=O)Nc3c(C)cccc3C(=O)O)CC2)cc1 [Example 179, 2-[(4-{4-[3-(2-methoxy-5-methyl-phenyl)-ureido]-phenyl}-piperazine-1-carbonyl)-amino]-3-methyl-benzoic acid] | ≥ 50 | 159 to 160
5 | COc1ccc(C)cc1NC(=O)Nc1ccc(N2CCN(C(=O)Nc3ccc(N)cc3C(F)(F)F)CC2)cc1 [Example 166, 4-{4-[3-(2-methoxy-5-methyl-phenyl)-ureido]-phenyl}-piperazine-1-carboxylic acid (4-amino-2-trifluoromethyl-phenyl)-amide] | ≥ 50 | 244 to 246
6 | CCOP(=O)(Cc1ccc(NC(=O)N2CCN(c3ccc(NC(=O)Nc4cc(C)ccc4OC)cc3)CC2)c(C)c1)OCC [Example 390, {4-[(4-{4-[3-(2-methoxy-5-methyl-phenyl)-ureido]-phenyl}-piperazine-1-carbonyl)-amino]-3-methyl-benzyl}-phosphonic acid diethyl ester] | ≥ 50 | –
7 | COc1ccc(C)cc1NC(=O)Nc1ccc(N2CCN(C(=O)NCc3ccccc3)CC2)cc1 [Example 50, 4-{4-[3-(2-methoxy-5-methyl-phenyl)-ureido]-phenyl}-piperazine-1-carboxylic acid benzylamide] | – | 224
8 | Cc1ccc(F)cc1NC(=O)Nc1ccc(N2CCN(C(=O)OC(C)(C)C)CC2)cc1 [Example 36, 4-{4-[3-(5-fluoro-2-methyl-phenyl)-ureido]-phenyl}-piperazine-1-carboxylic acid tert-butyl ester] | – | 206 to 208
9 | Cc1cccc(NC(=O)Nc2ccc(N3CCN(C(=O)OC(C)(C)C)CC3)cc2)c1 [Example 31, 4-[4-(3-m-tolyl-ureido)-phenyl]-piperazine-1-carboxylic acid tert-butyl ester] | – | 169 to 172
10 | COc1ccc(C)cc1NC(=O)Nc1ccc(N2CCN(C(=O)OC(C)(C)C)CC2)cc1 [Example 2, 4-{4-[3-(2-methoxy-5-methyl-phenyl)-ureido]-phenyl}-piperazine-1-carboxylic acid tert-butyl ester] | – | 157
11 | COc1ccc(F)cc1NC(=O)Nc1ccc(N2CCN(C(=O)OC(C)(C)C)CC2)cc1 [Example 44, 4-{4-[3-(5-fluoro-2-methoxy-phenyl)-ureido]-phenyl}-piperazine-1-carboxylic acid tert-butyl ester] | – | 200 to 202
12 | COc1ccc(Cl)cc1NC(=O)Nc1ccc(N2CCN(C(=O)Nc3ccccc3F)CC2)cc1 [Example 67, 4-{4-[3-(5-chloro-2-methoxy-phenyl)-ureido]-phenyl}-piperazine-1-carboxylic acid (2-fluoro-phenyl)-amide] | – | 218 to 220

More lines, now with the values ahead:

Row | inhibition at 0.1 µg/mL [1] [%] | melting point [°C] | Compound
13 | ≥ 50 | 166 to 171 | O=C(Nc1ccc(C2CCN(C(=O)Nc3ccc(OCCO)cc3Cl)CC2)cc1)Nc1ccccc1F [Example 263, 4-{4-[3-(2-fluoro-phenyl)-ureido]-phenyl}-piperidine-1-carboxylic acid [2-chloro-4-(2-hydroxy-ethoxy)-phenyl]-amide]
14 | ≥ 50 | 214 to 215 | COc1cccc(NC(=O)Nc2ccc(N3CCN(C(=O)Nc4ccc(OCCO)cc4C(F)(F)F)CC3)cc2)c1 [Example 214, 4-{4-[3-(3-methoxy-phenyl)-ureido]-phenyl}-piperazine-1-carboxylic acid [4-(2-hydroxy-ethoxy)-2-trifluoromethyl-phenyl]-amide]
15 | ≥ 50 | 209 to 210 | COc1cc(NC(=O)Nc2ccc(N3CCN(C(=O)Nc4ccc(OCCO)cc4C(F)(F)F)CC3)cc2)cc(OC)c1 [Example 216, 4-{4-[3-(3,5-dimethoxy-phenyl)-ureido]-phenyl}-piperazine-1-carboxylic acid [4-(2-hydroxy-ethoxy)-2-trifluoromethyl-phenyl]-amide]
16 | ≥ 50 | 213 to 215 | Cc1cccnc1NC(=O)N1CCN(c2ccc(NC(=O)Nc3ccccc3F)cn2)CC1 [Example 302, 4-{5-[3-(2-fluoro-phenyl)-ureido]-pyridin-2-yl}-piperazine-1-carboxylic acid (3-methyl-pyridin-2-yl)-amide]
17 | ≥ 50 | 189 to 190 | COc1ccc(C)cc1NC(=O)Nc1ccc(N2CCN(C(=O)Oc3ccc(CCO)cc3Cl)CC2)cc1 [Example 395, 4-{4-[3-(2-methoxy-5-methyl-phenyl)-ureido]-phenyl}-piperazine-1-carboxylic acid 2-chloro-4-(2-hydroxy-ethyl)-phenyl ester]
18 | ≥ 50 | 234 to 236 | COc1ccc(C)cc1NC(=O)Nc1ccc(C2CCN(C(=O)Nc3c(C)cccc3Cl)CC2)cc1 [Example 228, 4-{4-[3-(2-methoxy-5-methyl-phenyl)-ureido]-phenyl}-piperidine-1-carboxylic acid (2-chloro-6-methyl-phenyl)-amide]
19 | ≥ 50 | 214 to 215 | CCOc1ccc(Cl)cc1NC(=O)Nc1ccc(N2CCN(C(=O)Nc3ncccc3C)CC2)nc1 [Example 299, 4-{5-[3-(5-chloro-2-ethoxy-phenyl)-ureido]-pyridin-2-yl}-piperazine-1-carboxylic acid (3-methyl-pyridin-2-yl)-amide]
20 | ≥ 50 | 191 to 192 | COc1cc(NC(=O)Nc2ccc(N3CCN(C(=O)Nc4cc(OCCO)ccc4Cl)CC3)cc2)cc(OC)c1 [Example 234, 4-{4-[3-(3,5-dimethoxy-phenyl)-ureido]-phenyl}-piperazine-1-carboxylic acid [2-chloro-5-(2-hydroxy-ethoxy)-phenyl]-amide]
21 | ≥ 50 | 118 to 120 | COc1ccccc1NC(=O)Nc1ccc(N2CCN(C(=O)Nc3ccc(OCCO)cc3C(F)(F)F)CC2)cc1 [Example 217, 4-{4-[3-(2-methoxy-phenyl)-ureido]-phenyl}-piperazine-1-carboxylic acid [4-(2-hydroxy-ethoxy)-2-trifluoromethyl-phenyl]-amide]
22 | ≥ 50 | – | COc1ccc(C)cc1NC(=O)Nc1ccc2c(c1)CCN(C(=O)Nc1ncccc1C)C2 [Example 297, 6-[3-(2-methoxy-5-methyl-phenyl)-ureido]-3,4-dihydro-1H-isoquinoline-2-carboxylic acid (3-methyl-pyridin-2-yl)-amide]
23 | – | 199 to 200 | COc1ccc(C)cc1NC(=O)Nc1ccc(N2CCN(C(=O)C(O)c3ncccc3C)CC2)cc1 (stereo not shown) [Example 427, 1-(4-{4-[2-hydroxy-2-(3-methyl-pyridin-2-yl)-acetyl]-piperazin-1-yl}-phenyl)-3-(2-methoxy-5-methyl-phenyl)-urea]

Reference: patent US20070249620A1, “Urea Derivative” (priority 2004, published 2007)
